The subject of data set [1] is human embryonic kidney 293 (HEK293) cells. As to the kind of experiment: Cytotoxicity of NTPs, CYTO TOX-GLO assay. It is filed as cell-based. The procedure: The cytotoxicity of natural and modified nucleoside triphosphates (NTPs) alone or in combination with other bases, was analyzed in human embryonic kidney 293 (HEK293) cells in the absence of transfection reagent. […] 10 ul of the NTPs outlined in Table 12 were combined with 10 ul of lipid dilution and incubated for 30 minutes to form a complex before 80 ul of the HEK293 cell suspension was added to the NTP complex.
Natural and modified NTPs were transfected at a concentration of 2.1 nM, 21 nM, 210 nM, 2.1 um, 21 uM, 210 um or 2.1 mM. NTPs in combination were transfected at a total concentration of NTPs of 8.4 nM, 84 nM, 840 nM, 8.4 uM, 84 uM, 840 uM and 8.4 mM. […] The cytotoxicity of the NTPs and the modified G-CSF mRNA was assayed at 4, 24, 48 and 72 hours post addition to the HEK293 cells using a CYTO TOX-GLO™ assay from Promega (Madison, Wis.) following the manufacturer protocol except pippeting was used for lysing the cells instead of shaking the plates.

In data set [2] the test system is peripheral blood mononuclear cells (PBMC). As to the kind of experiment: In vitro screening in PBMC: G-CSF protein expression by ELISA. Format: cell-based, human. The source says: (§1) The supernatant was harvested and stored frozen until analyzed by ELISA to determine the G-CSF protein expression, and the induction of the cytokines interferon-alpha (IFN-α) and tumor necrosis factor alpha (TNF-α).

The next data set relates to interferon-alpha (IFN-α). As to the kind of experiment: In vitro screening in PBMC: interferon-alpha induction by ELISA. It is filed as cell-based, human.
Source text: as §1
Background: ELISA stands for enzyme-linked immunosorbent assay.

For data set [3], the system named is tumor necrosis factor alpha (TNF-α). As to the kind of experiment: In vitro screening in PBMC: tumor necrosis factor alpha induction by ELISA. It is filed as cell-based, human.
Source text: as §1

The mark [4] stands for this setting: PBMC Donor 1, 500 ng G-CSF mRNA.
Where [5] appears, read: PBMC Donor 2, 500 ng G-CSF mRNA.
Setting [6] is: PBMC Donor 3, 500 ng G-CSF mRNA.

As to Adenine, the “percent of viable cells” value in data set [1] (HEK293, individual NTP 2.1 nM, 4 hr) is 93.48%; in data set [1] (HEK293, individual NTP 2.1 nM, 24 hr) it was 86.44%; in data set [1] (HEK293, individual NTP 2.1 nM, 48 hr), 92.12%; in data set [1] (HEK293, individual NTP 2.1 nM, 72 hr), 95.74%; in data set [1] (HEK293, individual NTP 21 nM, 4 hr), 93.21%; in data set [1] (HEK293, individual NTP 21 nM, 24 hr), 87.19%. In addition, the “percent of viable cells” value is 91.13% in data set [1] (HEK293, individual NTP 21 nM, 48 hr); 93.88% in data set [1] (HEK293, individual NTP 21 nM, 72 hr); 90.36% in data set [1] (HEK293, individual NTP 210 nM, 4 hr); 86.94% in data set [1] (HEK293, individual NTP 210 nM, 24 hr); 89.17% in data set [1] (HEK293, individual NTP 210 nM, 48 hr); 92.22% in data set [1] (HEK293, individual NTP 210 nM, 72 hr). The “percent of viable cells” value in data set [1] (HEK293, individual NTP 2.1 uM, 4 hr) is given as 90.23%; in data set [1] (HEK293, individual NTP 2.1 uM, 24 hr), 86.81%; in data set [1] (HEK293, individual NTP 2.1 uM, 48 hr), 89.80%; in data set [1] (HEK293, individual NTP 2.1 uM, 72 hr) it was 94.58%; in data set [1] (HEK293, individual NTP 21 uM, 4 hr) it was 91.20%; in data set [1] (HEK293, individual NTP 21 uM, 24 hr), 86.86%. In addition, the “percent of viable cells” value is 89.94% in data set [1] (HEK293, individual NTP 21 uM, 48 hr); 93.83% in data set [1] (HEK293, individual NTP 21 uM, 72 hr); 85.97% in data set [1] (HEK293, individual NTP 210 uM, 4 hr); 87.31% in data set [1] (HEK293, individual NTP 210 uM, 24 hr); 90.55% in data set [1] (HEK293, individual NTP 210 uM, 48 hr); 94.81% in data set [1] (HEK293, individual NTP 210 uM, 72 hr). The “percent of viable cells” value was 90.03% in data set [1] (HEK293, individual NTP 2.1 mM, 4 hr); 88.42% in data set [1] (HEK293, individual NTP 2.1 mM, 24 hr); 93.71% in data set [1] (HEK293, individual NTP 2.1 mM, 48 hr); 97.49% in data set [1] (HEK293, individual NTP 2.1 mM, 72 hr).
On to `Cc1c[nH]c(=O)nc1N` [5-methyl cytosine], for which the “percent of viable cells” value in data set [1] (human, 4 h, 2.1 nM) is 92.23%; in data set [1] (human, 4 h, 21 nM), 91.40%; in data set [1] (human, 4 h, 210 nM) it was 92.31%; in data set [1] (human, 4 h, 2.1 uM), 91.31%; in data set [1] (human, 4 h, 21 uM) it was 91.16%; in data set [1] (human, 4 h, 210 uM) it was 91.54%. Besides, the “percent of viable cells” value was determined as 92.01% in data set [1] (human, 4 h, 2.1 mM); 86.35% in data set [1] (human, 24 h, 2.1 nM); 86.37% in data set [1] (human, 24 h, 21 nM); 84.71% in data set [1] (human, 24 h, 210 nM); 85.14% in data set [1] (human, 24 h, 2.1 uM); 84.72% in data set [1] (human, 24 h, 21 uM). Further, the “percent of viable cells” value is given as 85.76% in data set [1] (human, 24 h, 210 uM); 87.97% in data set [1] (human, 24 h, 2.1 mM); 88.18% in data set [1] (human, 48 h, 2.1 nM); 87.10% in data set [1] (human, 48 h, 21 nM); 86.44% in data set [1] (human, 48 h, 210 nM); 86.18% in data set [1] (human, 48 h, 2.1 uM). Besides, the “percent of viable cells” value in data set [1] (human, 48 h, 21 uM) was 85.74%; in data set [1] (human, 48 h, 210 uM), 85.94%; in data set [1] (human, 48 h, 2.1 mM) it was 87.29%; in data set [1] (human, 72 h, 2.1 nM), 91.93%; in data set [1] (human, 72 h, 21 nM) it was 92.10%; in data set [1] (human, 72 h, 210 nM), 89.97%. The “percent of viable cells” value in data set [1] (human, 72 h, 2.1 uM) turned out to be 90.92%; in data set [1] (human, 72 h, 21 uM) it was 92.26%; in data set [1] (human, 72 h, 210 uM) it was 88.10%; in data set [1] (human, 72 h, 2.1 mM), 96.08%.
As to `Cn1cc([C@@H]2O[C@H](CO)[C@@H](O)[C@H]2O)c(=O)[nH]c1=O` [N1-methyl pseudouridine], the “percent of viable cells” value in data set [1] (human, 4 h, 2.1 nM) turned out to be 91.89%; in data set [1] (human, 4 h, 21 nM), 91.44%; in data set [1] (human, 4 h, 210 nM), 92.15%; in data set [1] (human, 4 h, 2.1 uM), 90.41%; in data set [1] (human, 4 h, 21 uM) it was 91.48%; in data set [1] (human, 4 h, 210 uM), 91.43%. Besides, the “percent of viable cells” value in data set [1] (human, 4 h, 2.1 mM) was determined as 92.45%; in data set [1] (human, 24 h, 2.1 nM) it was 87.79%; in data set [1] (human, 24 h, 21 nM) it was 86.85%; in data set [1] (human, 24 h, 210 nM) it was 85.89%; in data set [1] (human, 24 h, 2.1 uM) it was 85.72%; in data set [1] (human, 24 h, 21 uM), 85.17%. The “percent of viable cells” value in data set [1] (human, 24 h, 210 uM) is 86.48%; in data set [1] (human, 24 h, 2.1 mM) it was 88.92%; in data set [1] (human, 48 h, 2.1 nM), 87.81%; in data set [1] (human, 48 h, 21 nM), 86.72%; in data set [1] (human, 48 h, 210 nM), 87.38%; in data set [1] (human, 48 h, 2.1 uM) it was 85.85%. The “percent of viable cells” value turned out to be 87.52% in data set [1] (human, 48 h, 21 uM); 86.02% in data set [1] (human, 48 h, 210 uM); 89.84% in data set [1] (human, 48 h, 2.1 mM); 92.98% in data set [1] (human, 72 h, 2.1 nM); 92.84% in data set [1] (human, 72 h, 21 nM); 92.40% in data set [1] (human, 72 h, 210 nM). The “percent of viable cells” value was determined as 92.25% in data set [1] (human, 72 h, 2.1 uM); 93.83% in data set [1] (human, 72 h, 21 uM); 93.03% in data set [1] (human, 72 h, 210 uM); 96.80% in data set [1] (human, 72 h, 2.1 mM).

B1: α-thiocytidine: G-CSF mRNA (SEQ ID NO: 408) fully modified with α-thiocytidine (nucleic acid)
chain: GGGAAAUAAGAGAGAAAAGAAGAGUAAGAAGAAAUAUAAGAGCCACCAUGGCCGGUCCCGCGACCCAAAGCCCCAUGAAACUUAUGGCCCUGCAGUUGCUGCUUUGGCACUCGGCCCUCUGGACAGUCCAAGAAGCGACUCCUCUCGGACCUGCCUCAUCGUUGCCGCAGUCAUUCCUUUUGAAGUGUCUGGAGCAGGUGCGAAAGAUUCAGGGCGAUGGAGCCGCACUCCAAGAGAAGCUCUGCGCGACAUACAAACUUUGCCAUCCCGAGGAGCUCGUACUGCUCGGGCACAGCUUGGGGAUUCCCUGGGCUCCUCUCUCGUCCUGUCCGUCGCAGGCUUUGCAGUUGGCAGGGUGCCUUUCCCAGCUCCACUCCGGUUUGUUCUUGUAUCAGGGACUGCUGCAAGCCCUUGAGGGAAUCUCGCCAGAAUUGGGCCCGACGCUGGACACGUUGCAGCUCGACGUGGCGGAUUUCGCAACAACCAUCUGGCAGCAGAUGGAGGAACUGGGGAUGGCACCCGCGCUGCAGCCCACGCAGGGGGCAAUGCCGGCCUUUGCGUCCGCGUUUCAGCGCAGGGCGGGUGGAGUCCUCGUAGCGAGCCACCUUCAAUCAUUUUUGGAAGUCUCGUACCGGGUGCUGAGACAUCUUGCGCAGCCGUGAAGCGCUGCCUUCUGCGGGGCUUGCCUUCUGGCCAUGCCCUUCUUCUCUCCCUUGCACCUGUACCUCUUGGUCUUUGAAUAAAGCCUGAGUAGGAAG
modifications: α-thiocytidine modified; Description of Artificial Sequence: Synthetic Transcript Sequence
As to B1, the “G-CSF Protein Expression” value in data set [2] (setting [4]) turned out to be 105 pg/mL; in data set [2] (setting [5]), 264 pg/mL; in data set [2] (setting [6]), 245 pg/mL. For the same molecule, the figures for the “IFN-α Expression” value in the data set with interferon-alpha (IFN-α) (setting [4]), with interferon-alpha (IFN-α) (setting [5]) and in the data set on interferon-alpha (IFN-α) (setting [6]) were 1,138 pg/ml, 565 pg/mL and 695 pg/mL, respectively. Further, the cytokine induction entry in the data set with interferon-alpha (IFN-α) (PBMC, G-CSF mRNA, result in words) is “increase cytokine stimulation”. The “TNF-α Expression” value is 300 pg/mL in data set [3] (setting [4]), 273 pg/mL in data set [3] (setting [5]) and 277 pg/mL in data set [3] (setting [6]).

The values are drawn from patent US20180291335A1, “MODIFIED POLYNUCLEOTIDES FOR ALTERING CELL PHENOTYPE” (ModernaTX, Inc., priority 2012, published 2018).
